{"source": "patent US20090131481A1", "about": "“Transcription Factor Modulating Compounds and Methods of Use Thereof” (Paratek Pharmaceuticals, Inc., published 2009)", "key": {"[1]": {"molecular_target": "T1, SoxS (Escherichia coli, UniProt P0A9E2)", "T1 sequence (P0A9E2 1-107)": "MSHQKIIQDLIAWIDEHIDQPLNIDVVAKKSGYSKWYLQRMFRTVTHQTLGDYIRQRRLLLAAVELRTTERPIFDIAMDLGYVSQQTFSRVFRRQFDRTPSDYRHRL", "assay": "Chemiluminescence-based SoxS-DNA binding assay", "design": "made in house; species or system E. coli", "settings": "for EC50: dose response analysis (footnote c), read-out: in vitro SoxS activity: concentration necessary to inhibit DNA-protein binding by 50% (EC50)"}, "[2]": {"molecular_target": "T1, SoxS", "assay": "Electrophoretic mobility shift assay (EMSA) with SoxS", "type": "binding", "settings": "50 ug/ml compound, 5 nM SoxS"}, "[3]": {"test_system": "E. coli UPEC strain C189", "assay": "Ascending pyelonephritis model of infection (Example 3)", "type": "in vivo", "settings": "female CD1 mice, oral dosing at infection and once a day for 4 days, 5-day infection"}, "[4]": {"molecular_target": "LcrF (VirF) (Yersinia pestis, UniProt P28808)", "sequence (P28808 whole entry, looked up)": "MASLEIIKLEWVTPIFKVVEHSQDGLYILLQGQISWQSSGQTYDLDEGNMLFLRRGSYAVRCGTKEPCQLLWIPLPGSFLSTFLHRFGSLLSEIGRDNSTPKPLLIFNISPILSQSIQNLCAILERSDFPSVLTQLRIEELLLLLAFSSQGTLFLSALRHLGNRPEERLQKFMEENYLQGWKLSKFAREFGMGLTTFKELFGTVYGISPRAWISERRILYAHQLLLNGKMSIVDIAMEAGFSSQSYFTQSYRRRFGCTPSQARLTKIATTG", "assay": "biochemical", "type": "binding, Y. pseudotuberculosis"}, "[5]": {"molecular_target": "T2, ExsA (Pseudomonas aeruginosa, UniProt P26993)", "T2 construct": "made in house", "T2 sequence (P26993 1-278)": "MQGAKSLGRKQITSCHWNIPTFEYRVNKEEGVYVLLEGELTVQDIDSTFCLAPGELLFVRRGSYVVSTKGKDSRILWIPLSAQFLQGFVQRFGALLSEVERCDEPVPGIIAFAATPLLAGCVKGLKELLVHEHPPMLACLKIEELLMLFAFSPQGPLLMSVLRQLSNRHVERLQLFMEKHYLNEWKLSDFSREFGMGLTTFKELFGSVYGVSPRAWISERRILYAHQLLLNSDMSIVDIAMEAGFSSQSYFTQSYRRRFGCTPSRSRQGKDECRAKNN", "assay": "Chemiluminescence-based ExsA-DNA binding assay", "design": "species or system P. aeruginosa"}, "[6]": {"test_system": "Y. pseudotuberculosis", "assay": "microbe, parasite or virus in culture", "settings": "Yersinia pseudotuberculosis, J774, read-out: % Cytotoxicity"}, "[7]": {"molecular_target": "T3, SlyA (Escherichia coli, UniProt P0A8W2)", "T3 sequence (P0A8W2 1-144)": "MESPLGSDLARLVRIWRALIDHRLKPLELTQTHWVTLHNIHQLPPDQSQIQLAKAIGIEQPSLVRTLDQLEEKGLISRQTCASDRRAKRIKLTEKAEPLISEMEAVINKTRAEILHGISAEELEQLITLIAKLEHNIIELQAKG", "assay": "biochemical", "type": "binding, E. coli"}, "[8]": {"test_system": "P. aeruginosa", "assay": "P. aeruginosa cytotoxicity whole cell assay (J774 cells, LDH release)", "settings": "relative to vehicle treated cells infected with wild type P. aeruginosa"}, "[9]": {"settings": "read-out: % Inhibition (SoxS binding to DNA)"}, "[10]": {"settings": "EC50 for inhibition of LcrF(VirF)-DNA binding"}, "[11]": {"settings": "Table 7, cell-free system, read-out: ExsA EC50"}, "[12]": {"settings": "Y. pseudotuberculosis VirF EC50"}, "[13]": {"settings": "Table 11, subsequent assay, read-out: P. aeruginosa ExsA EC50"}}, "note": "Where two headings read alike, the source gives them in different places."}
{"smiles": "O=C(Nc1ccc(-c2nc3ccc([N+](=O)[O-])cc3n2O)cc1)c1cccc(Cl)c1", "note": "[CG]", "values": [{"measurement": "EC50", "setting": "[1]", "value": "1 to 4.9", "unit": "µM"}]}
{"smiles": "O=[N+]([O-])c1ccc2nc(-c3ccccc3)n(OCCO)c2c1", "note": "[AS]", "values": [{"measurement": "inhibition at 50 µg/mL", "setting": "[1]; [9]", "value": "< 0", "unit": "%"}]}
{"smiles": "NC(=O)c1ccc2nc(-c3ccco3)n(O)c2c1", "note": "[BK]", "values": [{"measurement": "activity against SoxS in vitro in an EMSA", "setting": "[2]", "value": "lacked activity"}]}
{"smiles": "O=C(NCc1ccc(-c2nc3ccc([N+](=O)[O-])cc3n2O)cc1)c1ccccc1", "note": "[CD]", "values": [{"measurement": "inhibition at 50 µg/mL", "setting": "[1]; [9]", "value": "30 to 69", "unit": "%"}]}
{"smiles": "N#Cc1ccc(C(=O)Nc2ccc(-c3nc4ccc([N+](=O)O)cc4n3O)cc2)cc1", "note": "[E]", "values": [{"measurement": "Efficacy (log10 decrease in the CFU/g kidney tissue)", "setting": "[3]", "value": "** (exhibited a 1.1-2.0 log decrease in CFU/g)"}, {"measurement": "EC50", "setting": "[4]; [10]", "value": "10 to 25", "unit": "µM"}, {"measurement": "EC50", "setting": "[5]; [11]", "value": "10 to 25", "unit": "µM"}, {"measurement": "activity at 50 µg/mL", "setting": "[6]", "value": "< 75", "unit": "%"}]}
{"smiles": "CC(C)(C)c1ccc2nc(-c3ccccc3)n(O)c2c1", "note": "[BH]", "values": [{"measurement": "inhibition at 50 µg/mL", "setting": "[1]; [9]", "value": "< 0", "unit": "%"}]}
{"smiles": "Cc1ccc(-c2nc3ccc([N+](=O)[O-])cc3n2O)o1", "note": "[GC]", "values": [{"measurement": "Efficacy (log10 decrease in the CFU/g kidney tissue)", "setting": "[3]", "value": "** (exhibited a 1.1-2.0 log decrease in CFU/g)"}, {"measurement": "inhibition at 50 µg/mL", "setting": "[1]; compound screening concentration of 50 μg/ml (footnote b), read-out: in vitro SoxS activity: percent inhibition of DNA-protein binding", "value": "30 to 69", "unit": "%"}]}
{"smiles": "O=C(O)Cn1c(-c2nc3ccc([N+](=O)[O-])cc3n2O)nc2ccccc21", "note": "[BS]", "values": [{"measurement": "Efficacy (log10 decrease in the CFU/g kidney tissue)", "setting": "[3]", "value": "*** (exhibited a 0-1.0 log decrease in CFU/g)"}, {"measurement": "EC50", "setting": "[1]", "value": "1 to 4.9", "unit": "µM"}]}
{"smiles": "CN(C)c1ccc2nc(-c3ccccc3)n(O)c2c1", "note": "[BF]", "values": [{"measurement": "inhibition at 50 µg/mL", "setting": "[1]; [9]", "value": "0 to 29", "unit": "%"}]}
{"smiles": "Nc1cccc(-c2nc3ccc([N+](=O)[O-])cc3n2O)c1", "note": "[BO]", "values": [{"measurement": "inhibition at 50 µg/mL", "setting": "[1]; [9]", "value": "30 to 69", "unit": "%"}, {"measurement": "inhibition at 50 µg/mL", "setting": "[1]; read-out: in vitro SoxS activity: percent inhibition of DNA-protein binding", "value": "< 29", "unit": "%"}]}
{"smiles": "N#Cc1ccc2nc(-c3ccc(NC(=O)/C=C/c4ccc(F)cc4)cc3)n(O)c2c1", "note": "[CM]", "values": [{"measurement": "EC50", "setting": "[4]; [12]", "value": "5.1 to 15", "unit": "µM"}, {"measurement": "EC50", "setting": "[5]; [13]", "value": "< 5", "unit": "µM"}, {"measurement": "EC50", "setting": "[7]", "value": "> 15.1", "unit": "µM"}, {"measurement": "activity at 50 µg/mL", "setting": "[6]", "value": "75 to 99", "unit": "%"}, {"measurement": "Cytotoxicity at 50 μg/mL Pseudomonas", "setting": "[8]", "value": "** (reduced P. aeruginosa cytotoxicity below 75% of untreated, wild type levels at 50 mg/mL)"}]}
{"smiles": "N#Cc1ccc2nc(-c3ccccc3)n(O)c2c1", "note": "[BC]", "values": [{"measurement": "inhibition at 50 µg/mL", "setting": "[1]; [9]", "value": "30 to 69", "unit": "%"}]}
{"smiles": "CC(=NO)c1ccc2nc(-c3ccccc3)n(O)c2c1", "note": "[BJ]", "values": [{"measurement": "inhibition at 50 µg/mL", "setting": "[1]; [9]", "value": "30 to 69", "unit": "%"}]}
{"smiles": "O=C(O)COn1c(-c2ccccc2)nc2ccccc21", "note": "[AQ]", "values": [{"measurement": "inhibition at 50 µg/mL", "setting": "[1]; [9]", "value": "0 to 29", "unit": "%"}]}
{"smiles": "O=C(Nc1ccc(-c2nc3ccc([N+](=O)[O-])cc3n2O)cc1)c1ccc(Cl)cc1", "note": "[CE]", "values": [{"measurement": "inhibition at 25 µg/mL", "setting": "[1]; compound screening concentration of 25 μg/ml (footnote d), read-out: in vitro SoxS activity: percent inhibition of DNA-protein binding", "value": "> 70", "unit": "%"}]}
{"smiles": "COc1ccc(-c2nc3ccc([N+](=O)[O-])cc3n2O)cc1", "note": "[AV]", "values": [{"measurement": "inhibition at 50 µg/mL", "setting": "[1]; [9]", "value": "0 to 29", "unit": "%"}]}
{"smiles": "On1c(-c2ccccc2)nc2ccccc21", "note": "[AT]", "values": [{"measurement": "inhibition at 50 µg/mL", "setting": "[1]; [9]", "value": "< 0", "unit": "%"}]}
{"smiles": "On1c(-c2ccccc2)nc2ccc(C(F)(F)F)cc21", "note": "[AX]", "values": [{"measurement": "inhibition at 50 µg/mL", "setting": "[1]; [9]", "value": "0 to 29", "unit": "%"}]}
{"smiles": "O=[N+]([O-])c1ccc2nc(-c3ccc(O)cc3)n(O)c2c1", "note": "[BG]", "values": [{"measurement": "inhibition at 50 µg/mL", "setting": "[1]; [9]", "value": "30 to 69", "unit": "%"}]}
{"smiles": "CS(=O)(=O)c1ccc2nc(-c3ccccc3)n(O)c2c1", "note": "[BI]", "values": [{"measurement": "inhibition at 50 µg/mL", "setting": "[1]; [9]", "value": "30 to 69", "unit": "%"}]}
{"smiles": "N#CCOn1c(-c2ccccc2)nc2ccc([N+](=O)[O-])cc21", "note": "[BD]", "values": [{"measurement": "inhibition at 50 µg/mL", "setting": "[1]; [9]", "value": "0 to 29", "unit": "%"}]}
{"smiles": "CC(=O)c1ccc2nc(-c3ccccc3)n(O)c2c1", "note": "[AW]", "values": [{"measurement": "inhibition at 50 µg/mL", "setting": "[1]; [9]", "value": "30 to 69", "unit": "%"}]}
{"smiles": "COn1c(-c2ccccc2)nc2ccc([N+](=O)[O-])cc21", "note": "[BR]", "values": [{"measurement": "inhibition at 50 µg/mL", "setting": "[1]; [9]", "value": "0 to 29", "unit": "%"}]}
{"smiles": "O=C(O)c1ccc2nc(-c3ccccc3)n(O)c2c1", "note": "[BA]", "values": [{"measurement": "inhibition at 50 µg/mL", "setting": "[1]; [9]", "value": "0 to 29", "unit": "%"}]}
{"smiles": "NCCOn1c(-c2ccccc2)nc2ccc([N+](=O)[O-])cc21", "note": "[BE]", "values": [{"measurement": "inhibition at 50 µg/mL", "setting": "[1]; [9]", "value": "< 0", "unit": "%"}]}
{"smiles": "Cc1ccc(/C=C/C(=O)Nc2ccc(-c3nc4ccc([N+](=O)O)cc4n3O)cc2)cc1", "note": "[S]", "values": [{"measurement": "EC50", "setting": "[4]; [10]", "value": "< 10", "unit": "µM"}, {"measurement": "EC50", "setting": "[4]; [12]", "value": "< 5", "unit": "µM"}, {"measurement": "EC50", "setting": "[5]; [11]", "value": "< 10", "unit": "µM"}, {"measurement": "EC50", "setting": "[5]; [13]", "value": "< 5", "unit": "µM"}, {"measurement": "EC50", "setting": "[7]", "value": "> 15.1", "unit": "µM"}]}
{"smiles": "Cc1ccc(C(=O)Nc2ccc(-c3nc4ccc([N+](=O)[O-])cc4n3O)cc2)cc1", "note": "[D]", "values": [{"measurement": "EC50", "setting": "[4]; [10]", "value": "10 to 25", "unit": "µM"}, {"measurement": "EC50", "setting": "[5]; [11]", "value": "< 10", "unit": "µM"}, {"measurement": "EC50", "setting": "[1]", "value": "1 to 4.9", "unit": "µM"}, {"measurement": "activity at 50 µg/mL", "setting": "[6]", "value": "< 75", "unit": "%"}]}
